# Patent publication EP4772514A1, “MACROCYCLIC COMPOUNDS, PREPARATION METHOD THEREFOR, AND USE THEREOF” (Genfleet Therapeutics (Shanghai) Inc., priority 2023, dated 2025)
# Where two headings read alike, the source gives them in different places.
# What was measured:
# Format in all cases: cell-based
# AsPC-1 cells = assay: 3D cell proliferation assay (CellTiter Glo-3D) in AsPC-1 cells; conditions: AsPC-1, human pancreatic cancer cell strain, KRAS G12D mutation, 3D culture, 2% FBS, 5 days, read-out: AsPC-1 AP IC50
# From the text: MIA PaCa-2 cells were purchased from ATCC, Cat. No. CRL-1420; AsPC-1 cells were purchased from ATCC, Cat. No. CRL-1682; NCI-H441 cells were purchased from ATCC, Cat. No. HTB-174; NCI-H1975 cells were purchased from ATCC, Cat. No. CRL-5908; DMEM medium was purchased from Gibco, Cat. No. 11995-065; RPMI-1640 medium was purchased from Gibco, Cat. No. 11875-093; FBS was purchased from Gibco, Cat. No. 10099-141C; penicillin/streptomycin double-antibiotic solution (PS) was purchased from Gibco, Cat. No. 15140-122; Horse serum was purchased from Gibco, Cat. No. 16050130; trypsin (containing EDTA) was purchased from Gibco, Cat. No. 25200-072; DMSO was purchased from VWRAMRESCO, Cat. No. 0231-500ML; 384-well cell culture plates were purchased from Corning, Cat. No. 3830; white-bottomed, opaque 384-well assay plates were purchased from Corning, Cat. No. 3570; CellTiter Glo-3D kit was purchased from Promega, Cat. No. G9683; cell counter was purchased from CHEMOMETEC, model: NC-200; microplate reader was purchased from PerkinElmer, model: EnVision.
# MIA PaCa-2, a human pancreatic cancer cell strain endogenously containing a KRAS^G12Cmutation, was cultured in a complete medium containing DMEM + 10% FBS + 2.5% Horse serum + 1% PS. AsPC-1, a human pancreatic cancer cell strain endogenously containing a KRAS^G12D mutation, was cultured in a complete medium containing RPMI-1640 + 10% FBS + 1% PS. NCI-H441 cells, a human lung cancer cell strain endogenously containing a KRAS^G12V mutation, were cultured in a complete medium containing RPMI-1640 + 10% FBS + 1% PS. NCI-H1975, a KRAS wild-type human lung cancer cell strain whose cell proliferation […], was cultured in a complete medium containing RPMI-1640 + 10% FBS + 1% PS.
# The cells were digested with trypsin (containing EDTA), collected in their respective low-serum complete media containing 2% FBS (for MIA Paca-2 cell culture: DMEM + 2% FBS + 0.5% Horse serum + 1% PS), and counted. After the cell density was adjusted as required, MIA PaCa-2 cells (200 cells/well), AsPC-1 cells (800 cells/well), NCI-H441 cells (800 cells/well), or NCI-H1975 cells (400 cells/well) were seeded into a 384-well cell culture plate, with the volume of the medium in each well being 45 µL. The cell culture plate was incubated in an incubator at 37 °C with 5% CO2 overnight. A series of 3.16-fold gradient dilutions of a 1000× compound stock solution were prepared with DMSO, and then diluted 100-fold with the complete medium containing 2% FBS described above to give 10× compound stock solutions. On the day after cell seeding, 5 µL of the 10× compound stock solution was added to each cell culture well. As a result, the final concentration of the compound in the cell culture well became 1×, and the DMSO content in the well was 0.1%. In addition to the compound-treated wells described above, cell-containing DMSO control wells (with 5 µL of the complete medium containing 1% DMSO added to each well) and cell-free medium control wells (containing 50 µL of the complete medium with 2% FBS) were also set. The culture plate was incubated in an incubator at 37 °C with 5% CO2 for another 5 days, and then 30 µL of CellTiter-Glo working solution was added to each well. The mixture was well mixed, incubated for 30 min, left to stand at room temperature for 30 min, and then transferred to a white-bottomed, opaque 384-well assay plate at 40 µL/well. The chemiluminescence values (RLU) were measured using a microplate reader, and the cell proliferation inhibition rate for each well was calculated: IR(%) = (RLUDMSO - RLUcompound)/(RLUDMSO - RLUblank) × 100%, where RLUDMSO is the average RLU signal value from the DMSO control well samples, RLUblank is the average RLU signal value from the medium control well samples, and RLUcompound is the RLU signal value from the compound-treated well samples. […]
# NCI-H441 cells = assay: 3D cell proliferation assay (CellTiter Glo-3D) in NCI-H441 cells; conditions: NCI-H441, human lung cancer cell strain, KRAS G12V mutation, 3D culture, 2% FBS, 5 days, read-out: H441 AP IC50
# Procedure, shortened: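 After a 5-day exposure at 37 °C to 3.16-fold serial dilutions (final DMSO 0.1%) in 2% FBS RPMI-1640, ATP luminescence (CellTiter-Glo 3D) was read. Cells were AsPC-1 (KRAS G12D) or NCI-H441 (KRAS G12V), 800 per well; inhibition used DMSO and medium-only controls, with four-parameter curve fitting giving IC50.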
# p-ERK [1] = assay: Cell p-ERK assay (HTRF, Advance ERK phospho-T202/Y204 kit) in NCI-H441 cells; conditions: NCI-H441, human non-small cell lung cancer cell strain, KRAS G12V mutation, 3 h compound incubation
# Procedure, shortened: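 AsPC-1 (KRAS G12D) or NCI-H441 (KRAS G12V) cells seeded overnight, then treated 3 h at 37 °C with compound (0.1% DMSO) in RPMI-1640/10% FBS. Lysates assayed for ERK phospho-T202/Y204 by HTRF; inhibition vs DMSO and blank wells, IC50 from four-parameter fit.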
# p-ERK [2] = assay: Cell p-ERK assay (HTRF, Advance ERK phospho-T202/Y204 kit) in AsPC-1 cells; conditions: AsPC-1, human pancreatic cancer cell strain, KRAS G12D mutation, 3 h compound incubation
# Experimental: AsPC-1 cells were purchased from ATCC, Cat. No. CRL-1682; NCI-H441 cells were purchased from ATCC, Cat. No. HTB-174; RPMI-1640 medium was purchased from Gibco, Cat. No. 11875-093; FBS was purchased from Gibco, Cat. No. 10099-141C; penicillin/streptomycin double-antibiotic solution (PS) was purchased from Gibco, Cat. No. 15140-122; trypsin (containing EDTA) was purchased from Gibco, Cat. No. 25200-072; DMSO was purchased from VWRAMRESCO, Cat. No. 0231-500ML; 96-well cell culture plates were purchased from Corning, Cat. No. 3599; white-bottomed, opaque 96-well plates were purchased from Cisbio, Cat. No. 66PL96025; Advance ERK phospho-T202/Y204 kit was purchased from Cisbio, Cat. No. 64AERPEH; cell counter was purchased from CHEMOMETEC, model: NC-200; microplate reader was purchased from PerkinElmer, model: EnVision.
# AsPC-1, a human pancreatic cancer cell strain endogenously containing a KRAS^G12D mutation, was cultured in a complete medium containing RPMI-1640 + 10% FBS + 1% PS. NCI-H441, a human non-small cell lung cancer cell strain endogenously containing a KRAS^G12V mutation, was cultured in a complete medium containing RPMI-1640 + 10% FBS + 1% PS.
# The cells were digested with trypsin (containing EDTA), collected in their corresponding complete media, and counted. The density of the cell suspensions was adjusted with their corresponding complete media, and AsPC-1 cells (10000 cells/well) or NCI-H441 cells (20000 cells/well) were seeded into a 96-well cell culture plate, with the volume of the medium in each well being 80 µL. The cell culture plate was incubated in an incubator at 37 °C with 5% CO2 overnight. A series of 3.16-fold gradient dilutions of a 1000× compound stock solution were prepared with DMSO, and then diluted 200-fold with the complete medium described above to give 5× compound stock solutions. On the day after cell seeding, 20 µL of the 5× compound stock solution was added to each cell culture well. As a result, the final concentration of the compound in the cell culture well became 1×, and the DMSO content in the well was 0.1%. In addition to the compound-treated wells described above, cell-containing DMSO control wells were also set. A complete medium containing 0.5% DMSO was added at 20 µL/well. After the mixture was well mixed, the culture plate was incubated in the incubator at 37 °C with 5% CO2 for another 3 h. The medium was then removed from the culture wells, and 50 µL of cell lysis buffer (from Advance ERK phospho-T202/Y204 kit) was added to each well. The mixture was well mixed, incubated for 30 min, and then transferred to a white-bottomed, opaque 96-well assay plate at 16 µL/well, and separately, 16 µL of cell lysis buffer was added to additional wells (serving as blank wells) in the assay plate. After the transfer was completed, 4 µL of p-ERK HTRF antibody mixture (from Advance ERK phospho-T202/Y204 kit) was added to each well of the assay plate, followed by a 4-hour incubation. The HTRF signal values (RLU) were then measured using a microplate reader, and the inhibition rate of the compound against p-ERK levels was calculated as follows: IR(%) = (RLUDMSO - RLUcompound)/(RLUDMSO - RLUblank) × 100%, where RLUDMSO is the average HTRF signal value from the DMSO control well samples, RLU is the average HTRF signal value from the blank well samples, and RLUcompound is the HTRF signal value from the compound-treated well samples. Using an XLfit software, the IR(%) values were plotted against the logarithm of the compound concentrations, and the dose-response curves were fitted using the four-parameter method to calculate the IC50 values.
Molecule,"IC50 (AsPC-1 cells; ASPC1, 120 h) [nM]","IC50 (NCI-H441 cells; Homo sapiens, NCI-H441, 120 h) [nM]","IC50 (p-ERK [1]; Homo sapiens, NCI-H441, 3 h) [nM]",IC50 (p-ERK [2]; ASPC1) [nM],IC50 (AsPC-1 cells) [nM],IC50 (NCI-H441 cells) [nM],IC50 (p-ERK [1]) [nM],IC50 (p-ERK [2]) [nM]
"CCn1cc2c(c1-c1cc(C#CCN3CCC3)cnc1[C@H](C)OC)CC(C)(C)COC(=O)[C@@H]1CCCN(N1)C(=O)[C@@H](NC(=O)[C@H]1[C@H](C)[C@@H]1C)Cc1nc(cs1)/C=C/2 (atropisomer, axis not shown; (Ra)) [Compound Z70, (1r,2R,3S)-N-((4^2Z, 8^3S,2E,6S)-(Ra)-1^5-(5-(3-(azetidin-1-yl)prop-1-yn-1-yl)-2-((S)-1-methoxyethyl)pyridin-3-yl)-1^1-ethyl-12,12-dimethyl-7,9-dioxo-8^1,8^2,8^3,8^4,8^5,8^6-hexahydro-1^1H-10-oxa-4(4,2)-thiazola-8(1,3)-pyridazina-1(3,4)-pyrrolacyclotridecaphan-2-en-6-yl)-2,3-dimethylcyclopropane-1-carboxamide]",1.54,1.12,2.03,3.6,,,,
"(1r,2R,3S)-N-((4^2Z,8^3R,2E,6R)-1^1-ethyl-(Sa)-1^5-(2-((S)-1-methoxyethyl)-5-(4-methylpiperazin-1-yl)pyridin-3-yl)-12,12-dimethyl-7,9-dioxo-8^1,8^2,8^3,8^4,8^5,8^6-hexahydro-1^1H-10-oxa-4(4,2)-thiazola-8(1,3)-pyridazina-1(3,4)-pyrrolacyclotridecaphan-2-en-6-yl)-2,3-dimethylcyclopropane-1-carboxamide [Compound Z8-1]",,,,,64.3,62.7,98.6,103
"CCn1cc2c(c1-c1cc(N3CCN(C)CC3)cnc1[C@H](C)OC)CC(C)(C)COC(=O)[C@@H]1CCCN(N1)C(=O)[C@@H](NC(=O)[C@H]1[C@H](C)[C@@H]1C)Cc1nc(cs1)/C=C/2 (atropisomer, axis not shown) [Compound Z8A, (1r,2S,3R)-N-((4^2Z,8^3R,2E,6R)-1^1-ethyl-1^5-(2-((S)-1-methoxyethyl)-5-(4-methylpiperazin-1-yl)pyridin-3-yl)-12,12-dimethyl-7,9-dioxo-8^1,8^2,8^3,8^4,8^5,8^6-hexahydro-1^1H-10-oxa-4(4,2)-thiazola-8(1,3)-pyridazina-1(3,4)-pyrrolacyclotridecaphan-2-en-6-yl)-2,3-dimethylcyclopropane-1-carboxamide]",3.71,3.98,8.08,8.19,,,,

# Further lines, results first:
"IC50 (AsPC-1 cells; ASPC1, 120 h) [nM]","IC50 (NCI-H441 cells; Homo sapiens, NCI-H441, 120 h) [nM]","IC50 (p-ERK [1]; Homo sapiens, NCI-H441, 3 h) [nM]",IC50 (p-ERK [2]; ASPC1) [nM],IC50 (AsPC-1 cells) [nM],IC50 (NCI-H441 cells) [nM],IC50 (p-ERK [1]) [nM],IC50 (p-ERK [2]) [nM],Molecule
0.05,0.11,0.32,0.08,,,,,"CCn1cc2c(c1-c1cc(C#CCN3CCC(C#N)(CO)CC3)cnc1[C@H](C)OC)CC(C)(C)COC(=O)[C@@H]1CCCN(N1)C(=O)[C@@H](NC(=O)[C@H]1[C@H](C)[C@@H]1C)Cc1nc(cs1)/C=C/2 (atropisomer, axis not shown; (Ra)) [Compound Z103, (1r,2R,3S)-N-((4^2Z,8^3S,2E,6S)-(Ra)-1^5-(5-(3-(4-cyano-4-(hydroxymethyl)piperidin-1-yl)prop-1-yn-1-yl)-2-((S)-1-methoxyethyl)pyridin-3-yl)-1^1-ethyl-12,12-dimethyl-7,9-dioxo-8^1,8^2,8^3,8^4,8^5,8^6-hexahydro-1^1H-10-oxa-4(4,2)-thiazola-8(1,3)-pyridazina-1(3,4)-pyrrolacyclotridecaphan-2-en-6-yl)-2,3-dimethylcyclopropane-1-carboxamide]"
0.24,0.18,0.38,0.16,,,,,"CCn1cc2c(c1-c1cc(C#CCN3CCC(C#N)(CN)CC3)cnc1[C@H](C)OC)CC(C)(C)COC(=O)[C@@H]1CCCN(N1)C(=O)[C@@H](NC(=O)[C@H]1[C@@H]3COC[C@@H]31)Cc1nc(cs1)/C=C/2 (atropisomer, axis not shown; (Ra)) [Compound Z66]"
